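Compound exposure: 48 hours, 5 concentrations, 96-well plates. GI50 marks 50% less growth. TGI marks complete inhibition of growth.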

Common to all, as to test: NCI-60 cell line screen, 48 h
The test system of assay [1] is HCC-2998 colon.
Assay [2] relates to HCT-15 colon.
Assay [3] has as its system HOP-62 NSCLC.
Assay [4] deals with HS 578T breast.
In assay [5] the test system is SF-268 CNS.
Assay [6] has as its system SK-MEL-5 melanoma.
Assay [7] concerns SR leukemia.

Consider `NC(=O)c1cc([N+](=O)[O-])c(Cl)c([N+](=O)[O-])c1Cl`, for which the GI50 is 1.82 µM in assay [1]; 0.458 µM in assay [2]; 1.75 µM in assay [3]; 1.98 µM in assay [4]; 1.64 µM in assay [5]; 1.71 µM in assay [6]. Also, the GI50 in assay [7] was 0.516 µM. Further, the TGI in assay [1] is 3.45 µM; in assay [2] it was 3.25 µM; in assay [3], 3.16 µM; in assay [4], 4.98 µM; in assay [5], 3.07 µM; in assay [6], 3.11 µM. The TGI in assay [7] worked out at 4.8 µM.
Turning to `Cc1cccc2nc3ccccc3c(Nc3ccc(NS(C)(=O)=O)cc3)c12`, the GI50 in assay [1] is 8.09 µM; in assay [2] it was 5.89 µM; in assay [3], 4.69 µM; in assay [4] it was 8.88 µM; in assay [5], 10.2 µM; in assay [6] it was 4.91 µM. For the same molecule, the GI50 in assay [7] is 1.51 µM. In addition, the TGI in assay [1] is 21.4 µM; in assay [2] it was 31.6 µM; in assay [3] it was 17 µM; in assay [4] it was 31.7 µM; in assay [5], 30.2 µM; in assay [6], 17.5 µM. Besides, in assay [7], the TGI amounted to 6.7 µM.
For the molecule `COc1ccc2c(c1)nc(C(=O)c1ccco1)c(C(F)(F)F)[n+]2[O-]`, the GI50 in assay [1] is > 100 µM; in assay [2], > 100 µM; in assay [3], > 100 µM; in assay [4] it was > 100 µM; in assay [5], 83.8 µM; in assay [6] it was > 100 µM. Besides, the GI50 in assay [7] was > 100 µM. In addition, the TGI in assay [1], in assay [2], in assay [3], in assay [4], in assay [5] and in assay [6] was > 100 µM in each case. The TGI in assay [7] is > 100 µM.
Regarding `CC1CC[P+](c2ccccc2)(c2ccccc2)c2c1ccc1ccccc21` (stereo unspecified), the TGI in assay [1] is 41.9 µM; in assay [2], > 100 µM; in assay [3], > 57.5 µM; in assay [4] it was 7.66 µM; in assay [5], > 100 µM; in assay [6] it was 5.16 µM. Further, the TGI in assay [7] was > 100 µM. Moreover, the GI50 in assay [3] is 11.5 µM; in assay [7], 9.65 µM.
As to `CCC(C)[C@H](NC(=O)Nc1cc(C(F)(F)F)cc(C(F)(F)F)c1)C(=O)N[C@@H](Cc1cn(C)cn1)C(=O)OC` (stereo partly specified), the GI50 was 0.696 µM in assay [1]; 1.4 µM in assay [2]; 0.919 µM in assay [3]; 1.47 µM in assay [4]; 0.61 µM in assay [5]; 0.59 µM in assay [6]. In addition, the GI50 in assay [7] was 0.801 µM. The TGI in assay [1] was 1.35 µM; in assay [2] it was 2.21 µM; in assay [3], 1.82 µM; in assay [4] it was 2.61 µM; in assay [5] it was 1.16 µM; in assay [6] it was 1.27 µM. The molecule further yielded a TGI in assay [7] of 2.08 µM.
Consider `CCN(Cc1ccccc1)C1CCN(Cc2cc(Br)ccc2O)CC1`, for which the GI50 in assay [1] is 33.7 µM; in assay [2] it was 20.1 µM; in assay [3] it was > 100 µM; in assay [4], 57.2 µM; in assay [5], 59.7 µM; in assay [6], 15 µM. For the same molecule, the GI50 in assay [7] was 27.8 µM. In addition, the TGI in assay [1] is > 100 µM; in assay [2], > 100 µM; in assay [3], > 100 µM; in assay [4], > 100 µM; in assay [5] it was > 100 µM; in assay [6], 28.9 µM. The TGI in assay [7] is > 100 µM.
As to `O=S(=O)(NNc1ccccc1)c1ccccc1`, the TGI is > 100 µM in assay [1]; > 100 µM in assay [2]; 32.7 µM in assay [3]; > 100 µM in assay [4]; > 100 µM in assay [5]; 12.7 µM in assay [6]. In assay [7], this molecule yielded a TGI of 53.1 µM.
As to `CNC(=O)c1c(NC(=O)c2ccc(C(C)(C)C)cc2)sc2c1CCC(=O)C2`, the GI50 in assay [1] is 0.581 µM; in assay [2], 0.12 µM; in assay [3], 0.835 µM; in assay [4] it was 0.38 µM; in assay [5] it was 0.414 µM; in assay [6], 0.349 µM. The GI50 in assay [7] is 0.107 µM. In addition, the TGI worked out at 2.04 µM in assay [1]; 1.27 µM in assay [2]; 3.32 µM in assay [3]; 3.07 µM in assay [4]; 1.85 µM in assay [5]; 1.33 µM in assay [6].
Turning to `COc1ncc(Nc2ncc([C@@H](C)N3CCN(S(C)(=O)=O)CC3)cc2-c2nc(C)nc(N)n2)cc1F`, the GI50 in assay [1] was 0.211 µM; in assay [2], 0.198 µM; in assay [3], 0.192 µM; in assay [4], 0.0244 µM; in assay [5] it was 0.452 µM; in assay [6], 2.09 µM. In addition, the GI50 in assay [7] is 4.83 µM. Besides, the TGI in assay [1] was > 100 µM; in assay [2], > 100 µM; in assay [3], 75.1 µM; in assay [4], 3.02 µM; in assay [5] it was > 100 µM; in assay [6], 9.04 µM. Also, in assay [7], the TGI is > 61.5 µM.
`Nc1nc([Se])c2ncn(C3OC(CO)C(O)C3O)c2n1` (stereo unspecified): the GI50 in assay [1] was 17.9 µM; in assay [2], 7.84 µM; in assay [3] it was 3.73 µM; in assay [4], 4.71 µM; in assay [5], 9.27 µM; in assay [6], 25.2 µM. Further, the GI50 in assay [7] was 2.88 µM. The TGI is > 100 µM in assay [1]; > 100 µM in assay [2]; > 100 µM in assay [3]; > 100 µM in assay [4]; > 100 µM in assay [5]; 89.6 µM in assay [6]. For the same molecule, the TGI in assay [7] was > 100 µM.
As to `CCN(CC)CCCNc1cc(OC)cc2nc3cc(Cl)ccc3nc12`, the GI50 in assay [1] is 1.47 µM; in assay [2], 4.12 µM; in assay [3], 2.47 µM; in assay [4], 2.53 µM; in assay [5], 1.62 µM; in assay [6], 1.59 µM. In assay [7], the GI50 was 0.633 µM. Besides, the TGI in assay [1] amounted to 2.92 µM; in assay [2], 35.4 µM; in assay [3], 8.44 µM; in assay [4], 9.48 µM; in assay [5] it was 8.26 µM; in assay [6], 2.96 µM. This molecule also registered a TGI in assay [7] of 18 µM.

(Values after PubChem BioAssay (NCI).)
